# From patent publication US8933089B2, “HIV inhibiting 5-amido substituted pyrimidines” (Janssen R & D Ireland, priority 2006, dated 2015)
# Tests used:
# Type in all cases: cell-based, HIV-1
# [1] = system: HIV strain Y188L; experiment: Cellular anti-HIV assay in MT4 LTR-EGFP cells, mutant Y188L; conditions: Human immunodeficiency virus 1, read-out: Y188L pEC50 (converted)
# Experimental: (§1) Because of the increasing emergence of drug resistant HIV strains, the present compounds were tested for their potency against clinically isolated HIV strains harbouring several mutations. These mutations are associated with resistance to reverse transcriptase inhibitors and result in viruses that show various degrees of phenotypic cross-resistance to the currently commercially available drugs such as for instance AZT and delavirdine.
# (§2) The antiviral activity of the compound of the present invention has been evaluated in the presence of wild type HIV and HIV mutants bearing mutations at the reverse transcriptase gene. The activity of the compounds is evaluated using a cellular assay which was performed according to the following procedure.
# (§3) The human T-cell line MT4 is engineered with Green Fluorescent Protein (GFP) and an HIV-specific promoter, HIV-1 long terminal repeat (LTR). This cell line is designated MT4 LTR-EGFP, and can be used for the in vitro evaluation of anti-HIV activity of investigational compounds. In HIV-1 infected cells, the Tat protein is produced which upregulates the LTR promotor and finally leads to stimulation of the GFP reporter production, allowing to measure ongoing HIV-infection fluorometrically. Analogously, MT4 cells are engineered with GFP and the constitutional cytomegalovirus (CMV) promotor. This cell line is designated MT4 CMV-EGFP, and can be used for the in vitro evaluation of cytotoxicity of investigational compounds. In this cell line, GFP levels are comparably to those of infected MT4 LTR-EGFP cells. Cytotoxic investigational compounds reduce GFP levels of mock-infected MT4 CMV-EGFP cells.
# (§4) Effective concentration values such as 50% effective concentration (EC50) can be determined and are usually expressed in μM. An EC50 value is defined as the concentration of test compound that reduces the fluorescence of HIV-infected cells by 50%. The 50% cytotoxic concentration (CC50 in μM) is defined as the concentration of test compound that reduces fluorescence of the mock-infected cells by 50%. The ratio of CC50 to EC50 is defined as the selectivity index (SI) and is an indication of the selectivity of the anti-HIV activity of the inhibitor. The ultimate monitoring of HIV-1 infection and cytotoxicity is done using a scanning microscope. Image analysis allows very sensitive detection of viral infection. Measurements are done before cell necrosis, which usually takes place about five days after infection, in particular measurements are performed three days after infection.
# (§5) The columns IIIB, L100I, etc. in the table list the pEC50 values against various strains IIIB, L100I, etc.
# [2] = system: HIV strain K103N + Y181C; experiment: Cellular anti-HIV assay in MT4 LTR-EGFP cells, mutant K103N + Y181C; conditions: Human immunodeficiency virus 1, 72 h, read-out: K103N + Y181C pEC50 (converted)
# Experimental: as §1, §2, §3, §4, §5
# [3] = system: HIV strain L100I; experiment: Cellular anti-HIV assay in MT4 LTR-EGFP cells, mutant L100I; conditions: Human immunodeficiency virus 1, read-out: L100I pEC50 (converted)
# Experimental: as §1, §2, §3, §4, §5
# [4] = system: HIV strain Y181C; experiment: Cellular anti-HIV assay in MT4 LTR-EGFP cells, mutant Y181C; conditions: Human immunodeficiency virus 1, read-out: Y181C pEC50 (converted)
# Experimental: as §1, §2, §3, §4, §5
# [5] = system: HIV strain IIIB (wild type); experiment: Cellular anti-HIV assay in MT4 LTR-EGFP cells, strain IIIB (wild type); selectivity index versus cytotoxicity in mock-infected MT4 CMV-EGFP cells; conditions: for EC50: Human immunodeficiency virus 1, 72 h, wild type HIV strain IIIB, MT4 LTR-EGFP cells, fluorescence, three days after infection, read-out: IIIB pEC50 (converted); for IIIB pSi: selectivity index = ratio of CC50 (mock-infected MT4 CMV-EGFP cells) to EC50 (IIIB), given as p value
# Experimental: as §2, §3, §4, §5
# Strain IIIB is wild type HIV strain
# [6] = system: HIV strain K103N; experiment: Cellular anti-HIV assay in MT4 LTR-EGFP cells, mutant K103N; conditions: Human immunodeficiency virus 1, read-out: K103N pEC50 (converted)
# Experimental: as §1, §2, §3, §4, §5
# [7] = system: HIV strain L100I + K103N; experiment: Cellular anti-HIV assay in MT4 LTR-EGFP cells, mutant L100I + K103N; conditions: Human immunodeficiency virus 1, 72 h, read-out: L100I + K103N pEC50 (converted)
# Experimental: as §1, §2, §3, §4, §5
# [8] = system: HIV strain MDR; experiment: Cellular anti-HIV assay in MT4 LTR-EGFP cells, MDR strain; conditions: Human immunodeficiency virus 1, read-out: MDR pEC50 (converted)
# Experimental: as §1, §2, §3, §4, §5
# MDR refers to a strain that contains mutations L100I, K103N, Y181C, E138G, V1791, L2214F, V278V/I and A327A/V in HIV reverse transcriptase.
Structure (SMILES),EC50 [1],EC50 [2],EC50 [3],EC50 [4],EC50 [5],IIIB pSi [5],EC50 [6],EC50 [7],EC50 [8]
Cc1cc(/C=C/C#N)cc(C)c1Nc1nc(Nc2ccc(C#N)cc2)ncc1C(=O)NCc1cccs1 [Compound 20],50.1 nM,31.6 nM,15.8 nM,39.8 nM,5.01 nM,3.60,5.01 nM,100 nM,2510 nM
Cc1cc(/C=C/C#N)cc(C)c1Nc1nc(Nc2ccc(C#N)cc2)ncc1C(=O)NCC#N [Compound 21],15.8 nM,15.8 nM,3.98 nM,15.8 nM,15.8 nM,2.80,5.01 nM,15.8 nM,501 nM
Cc1cc(/C=C/C#N)cc(C)c1Nc1nc(Nc2ccc(C#N)cc2)ncc1C(=O)NCCN(C)C [Compound 22],50.1 nM,20 nM,20 nM,15.8 nM,0.794 nM,3.90,0.631 nM,100 nM,2000 nM
Cc1cc(/C=C/C#N)cc(C)c1Nc1nc(Nc2ccc(C#N)cc2)ncc1C(=O)NCc1cccc(Cl)c1 [Compound 25],50.1 nM,31.6 nM,25.1 nM,79.4 nM,12.6 nM,3.00,15.8 nM,39.8 nM,10000 nM
Cc1cc(/C=C/C#N)cc(C)c1Nc1nc(Nc2ccc(C#N)cc2)ncc1C(=O)NCc1ccc(F)cc1 [Compound 26],79.4 nM,39.8 nM,25.1 nM,50.1 nM,12.6 nM,3.00,12.6 nM,316 nM,5010 nM
Cc1cc(/C=C/C#N)cc(C)c1Nc1nc(Nc2ccc(C#N)cc2)ncc1C(=O)NCc1cccc(Br)c1 [Compound 29],158 nM,100 nM,79.4 nM,79.4 nM,15.8 nM,3.00,20 nM,126 nM,10000 nM
Cc1cc(/C=C/C#N)cc(C)c1Nc1nc(Nc2ccc(C#N)cc2)ncc1C(=O)NCc1ccc(N(C)C)cc1 [Compound 30],316 nM,100 nM,100 nM,100 nM,12.6 nM,>3.30,15.8 nM,251 nM,5010 nM
CC(=O)NCCNC(=O)c1cnc(Nc2ccc(C#N)cc2)nc1Nc1c(C)cc(/C=C/C#N)cc1C [Compound 33],63.1 nM,12.6 nM,15.8 nM,50.1 nM,15.8 nM,>3.20,15.8 nM,15.8 nM,398 nM
Cc1cc(/C=C/C#N)cc(C)c1Nc1nc(Nc2ccc(C#N)cc2)ncc1C(=O)NCc1ccc(Br)cc1 [Compound 36],398 nM,126 nM,126 nM,126 nM,25.1 nM,>3.00,25.1 nM,794 nM,10000 nM
Cc1cc(/C=C/C#N)cc(C)c1Nc1nc(Nc2ccc(C#N)cc2)ncc1C(=O)NC1CC1 [Compound 37],12.6 nM,7.94 nM,5.01 nM,12.6 nM,2.51 nM,3.60,1.58 nM,20 nM,1000 nM
Cc1cc(/C=C/C#N)cc(C)c1Nc1nc(Nc2ccc(C#N)cc2)ncc1C(=O)NCCCN1CCCC1 [Compound 38],25.1 nM,15.8 nM,25.1 nM,20 nM,0.794 nM,3.70,1 nM,63.1 nM,2000 nM
Cc1cc(/C=C/C#N)cc(C)c1Nc1nc(Nc2ccc(C#N)cc2)ncc1C(=O)NCC1CC1 [Compound 41],79.4 nM,20 nM,7.94 nM,15.8 nM,5.01 nM,>3.70,3.98 nM,50.1 nM,1580 nM
